{"source": "patent US6573269B1", "about": "“Pyrimidine-2,4,6-trione light screening compositions” (Roche Vitamins Inc., priority 1999, dated 2003)", "type_in_all_cases": "physicochemical", "key": {"[1]": {"assay": "Photostability: irradiation in high dilution with a Hg-lamp (150 W from Hereus)", "conditions": "irradiated in high dilution with a Hg-lamp (150 W)", "procedure": "A 100 ml three necked reaction flask equipped with a thermometer, a reflux condenser, and a magnetic stirrer under nitrogen atmosphere was charged with 1.1 g (5 mmol) of 4-(2-ethyl-hexyloxy)-phenylamine (Example 1b), 1.06 g (5 mmol) of 1,3-diisopropyl-pyrimidine-2,4,6-trione (Example 1c) and 11.1 g (75 mmol) of triethyl orthoformate in 10 ml of tetrahydrofuran. This mixture was refluxed for 18 hours followed by washing twice with water, dried with Na2SO4, and concentrated on a rotary evaporator. The raw product was recrystallized in ethanol to yield 0.84 g of yellowish crystals. M.p. 74-76° C., UV 355 nm (32,122)."}, "[2]": {"assay": "UV absorption (UV-A filter property)", "conditions": "for UV extinction (ε) at absorption maximum: value in brackets after the UV maximum", "from_the_text": "The compounds of formula I have adsorption maxima in the range of 320 nm to 400 nm, the so called UV-A radiation."}, "[3]": {"assay": "Measurement of solubility in cosmetic solvents Cétiol LC and Crodamol DA", "conditions": "oversaturated solution, overnight at 25° C., filtered, UV measurement in CH2Cl2", "procedure": "e) Measurement of solubility in Cétiol LC (cocoyl caprylate caprate) and Crodamol DA (diisopropyl adipate).\nAfter standing overnight at 25° C., the solution was filtered through a microfilter (Millipore, pore size 0.5 , μm), followed by UV measurement in CH2Cl2. The extinctions were compared with the extinctions of the pure compound."}}}
{"molecule": "CCCCCCCC(=O)Oc1ccc(NC=C2C(=O)N(C(C)C)C(=O)N(C(C)C)C2=O)cc1", "note": "[Example 8, 5-{(4-Capryloxy-phenylamine)-methylene}-1,3-diisopropyl-pyrimidine-2,4,6-trione]", "values": [{"measurement": "photostability", "setting": "[1]", "result": "photostable"}, {"measurement": "UV absorption maximum", "setting": "[2]", "result": 346, "unit": "nm"}, {"measurement": "UV extinction (ε) at absorption maximum", "setting": "[2]", "result": "33,768"}, {"measurement": "solubility in Crodamol DA (diisopropyl adipate)", "setting": "[3]", "result": 18.5, "unit": "%"}, {"measurement": "solubility in Cétiol LC (cocoyl caprylate caprate)", "setting": "[3]", "result": 6.6, "unit": "%"}]}
{"molecule": "CCCCCCCC(=O)Oc1ccc(NC=C2C(=O)N(C(C)C)C(=O)N(C(C)C)C2=O)c(OC(=O)CCCCCCC)c1", "note": "[Example 9 diester]", "values": [{"measurement": "UV absorption maximum", "setting": "[2]", "result": 351, "unit": "nm"}, {"measurement": "UV extinction (ε) at absorption maximum", "setting": "[2]", "result": "31,349"}, {"measurement": "solubility in Cétiol LC (cocoyl caprylate caprate)", "setting": "[3]", "result": "easily mixable with Cétiiol LC in any proportion"}]}
{"molecule": "CC(C)N1C(=O)C(=CNc2ccc(O)cc2)C(=O)N(C(C)C)C1=O", "note": "[Example 6, 5-{(4-Hydroxy-phenylamine)-methylene}-1,3-diisopropyl-pyrimidine-2,4,6-trione]", "values": [{"measurement": "photostability", "setting": "[1]", "result": "photostable"}, {"measurement": "UV absorption maximum", "setting": "[2]", "result": 351, "unit": "nm"}, {"measurement": "UV extinction (ε) at absorption maximum", "setting": "[2]", "result": "27,911"}, {"measurement": "solubility in Crodamol DA (diisopropyl adipate)", "setting": "[3]", "result": 3.6, "unit": "%"}]}
{"molecule": "C#CCOc1ccc(NC=C2C(=O)N(C(C)C)C(=O)N(C(C)C)C2=O)cc1", "note": "[Example 2, 5-{(4-Propargyloxy-phenylamine)-methylene}-1,3-diisopropyl-pyrimidine-2,4,6-trione]", "values": [{"measurement": "photostability", "setting": "[1]", "result": "photostable"}, {"measurement": "UV absorption maximum", "setting": "[2]", "result": 352, "unit": "nm"}, {"measurement": "UV extinction (ε) at absorption maximum", "setting": "[2]", "result": "31,596"}]}
{"molecule": "CCCCCCCC(=O)Oc1ccc(NC=C2C(=O)N(C(C)C)C(=O)N(C(C)C)C2=O)c(O)c1", "note": "[5-{[(2-hydroxy-4-capryloxy)-phenylamine])-methylene}-1,3-diisopropyl-pyrimidine-2,4,6-trione]", "values": [{"measurement": "UV absorption maximum", "setting": "[2]", "result": 354, "unit": "nm"}, {"measurement": "UV extinction (ε) at absorption maximum", "setting": "[2]", "result": "25,813"}]}
{"molecule": "CC(C)N1C(=O)C(=CNc2ccc(O)cc2O)C(=O)N(C(C)C)C1=O", "note": "[Example 7, 5-{(2,4-Dihydroxy-phenylamine)-methylene}-1,3-diisopropyl-pyrimidine-2,4,6-trione]", "values": [{"measurement": "photostability", "setting": "[1]", "result": "photostable"}, {"measurement": "UV absorption maximum", "setting": "[2]", "result": 363, "unit": "nm"}, {"measurement": "UV extinction (ε) at absorption maximum", "setting": "[2]", "result": "23,564"}, {"measurement": "solubility in Crodamol DA (diisopropyl adipate)", "setting": "[3]", "result": 4.1, "unit": "%"}]}
{"molecule": "C=C(COc1ccc(NC=C2C(=O)N(C(C)C)C(=O)N(C(C)C)C2=O)cc1)[Si](C)(O[Si](C)(C)C)O[Si](C)(C)C", "note": "[Example 3, 5-{[4-(2-(1,3,3,3-tetramethyl-1-[(trimethylsilyl)-oxy]-disiloxanyl)-prop-2-enyloxy)-phenylamine]-methylene}-1,3-diisopropyl-pyrimidine-2,4,6-trione]", "values": [{"measurement": "photostability", "setting": "[1]", "result": "excellent"}, {"measurement": "UV absorption maximum", "setting": "[2]", "result": 354, "unit": "nm"}, {"measurement": "UV extinction (ε) at absorption maximum", "setting": "[2]", "result": "31,520"}, {"measurement": "solubility in Crodamol DA (diisopropyl adipate)", "setting": "[3]", "result": "unlimited"}, {"measurement": "solubility in Cétiol LC (cocoyl caprylate caprate)", "setting": "[3]", "result": "unlimited"}]}
{"molecule": "CCCCC(CC)COc1ccc(NC=C2C(=O)N(C(C)C)C(=O)N(C(C)C)C2=O)cc1", "note": "(stereo not shown) [Example 1, 5-{[4-(2-Ethyl-hexyloxy)-phenylamine]-methylene}-1,3-diisopropyl-pyrimidine-2,4,6-trione]", "values": [{"measurement": "photostability", "setting": "[1]", "result": "photostable"}, {"measurement": "UV absorption maximum", "setting": "[2]", "result": 355, "unit": "nm"}, {"measurement": "UV extinction (ε) at absorption maximum", "setting": "[2]", "result": "32,122"}, {"measurement": "solubility in Crodamol DA (diisopropyl adipate)", "setting": "[3]", "result": 26.9, "unit": "%"}, {"measurement": "solubility in Cétiol LC (cocoyl caprylate caprate)", "setting": "[3]", "result": 15.5, "unit": "%"}]}
